This note sets out measurements from patent US8552205B2, “Derivatives of 6,7-dihydro-5H-imidazo[1,2-alpha]imidazole-3-carboxylic acid amides” (Boehringer Ingelheim International GmbH, priority 2007, dated 2013).

T1 sequence (P20701 26-1170): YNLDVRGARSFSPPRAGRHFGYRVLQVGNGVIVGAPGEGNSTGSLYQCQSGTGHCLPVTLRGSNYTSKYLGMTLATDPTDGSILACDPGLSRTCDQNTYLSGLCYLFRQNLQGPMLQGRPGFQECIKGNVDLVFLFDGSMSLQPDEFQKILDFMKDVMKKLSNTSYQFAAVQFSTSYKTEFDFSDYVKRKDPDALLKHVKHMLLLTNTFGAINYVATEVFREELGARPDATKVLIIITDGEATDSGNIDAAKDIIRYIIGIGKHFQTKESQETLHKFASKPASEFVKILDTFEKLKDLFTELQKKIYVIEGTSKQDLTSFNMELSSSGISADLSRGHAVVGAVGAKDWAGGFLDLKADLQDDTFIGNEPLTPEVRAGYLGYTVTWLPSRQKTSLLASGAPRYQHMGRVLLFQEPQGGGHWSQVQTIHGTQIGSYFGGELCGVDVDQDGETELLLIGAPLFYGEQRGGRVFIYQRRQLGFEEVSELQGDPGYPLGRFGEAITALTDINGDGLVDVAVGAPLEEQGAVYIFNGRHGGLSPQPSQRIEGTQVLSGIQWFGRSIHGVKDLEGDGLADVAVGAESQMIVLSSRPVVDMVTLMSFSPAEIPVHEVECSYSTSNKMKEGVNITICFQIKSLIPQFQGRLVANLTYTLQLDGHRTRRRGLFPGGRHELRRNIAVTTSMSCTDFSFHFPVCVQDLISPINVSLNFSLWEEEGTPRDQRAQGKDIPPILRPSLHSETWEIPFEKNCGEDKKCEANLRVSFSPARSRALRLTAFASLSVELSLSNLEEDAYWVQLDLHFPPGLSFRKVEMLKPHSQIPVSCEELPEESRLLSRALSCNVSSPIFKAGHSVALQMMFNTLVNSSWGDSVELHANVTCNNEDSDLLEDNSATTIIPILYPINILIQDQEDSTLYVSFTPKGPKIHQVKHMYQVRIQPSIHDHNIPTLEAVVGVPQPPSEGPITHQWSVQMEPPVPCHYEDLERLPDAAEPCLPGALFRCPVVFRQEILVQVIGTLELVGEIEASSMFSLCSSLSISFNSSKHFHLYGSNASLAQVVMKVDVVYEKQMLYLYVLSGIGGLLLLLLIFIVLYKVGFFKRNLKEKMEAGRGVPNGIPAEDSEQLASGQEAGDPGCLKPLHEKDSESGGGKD
T1 sequence (P05107 23-769): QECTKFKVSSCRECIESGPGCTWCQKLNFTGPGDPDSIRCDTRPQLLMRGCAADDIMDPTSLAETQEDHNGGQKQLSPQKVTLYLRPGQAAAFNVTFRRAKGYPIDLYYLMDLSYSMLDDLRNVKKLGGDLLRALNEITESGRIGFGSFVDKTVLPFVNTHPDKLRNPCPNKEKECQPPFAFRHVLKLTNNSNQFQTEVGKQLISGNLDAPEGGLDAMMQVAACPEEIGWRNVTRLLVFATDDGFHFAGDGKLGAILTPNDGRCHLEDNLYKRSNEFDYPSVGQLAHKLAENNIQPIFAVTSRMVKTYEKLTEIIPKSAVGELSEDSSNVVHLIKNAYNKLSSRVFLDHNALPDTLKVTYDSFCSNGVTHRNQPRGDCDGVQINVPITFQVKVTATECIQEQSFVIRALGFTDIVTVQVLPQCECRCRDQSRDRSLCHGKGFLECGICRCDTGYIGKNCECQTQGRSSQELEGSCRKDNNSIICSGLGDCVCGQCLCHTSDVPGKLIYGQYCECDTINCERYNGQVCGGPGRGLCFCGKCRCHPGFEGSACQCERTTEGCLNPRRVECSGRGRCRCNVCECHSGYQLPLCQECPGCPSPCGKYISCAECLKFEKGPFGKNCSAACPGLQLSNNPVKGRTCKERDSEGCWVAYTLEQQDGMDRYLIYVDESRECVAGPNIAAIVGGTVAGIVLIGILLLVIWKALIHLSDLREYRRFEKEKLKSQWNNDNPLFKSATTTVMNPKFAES

The first assay has as its target T1, LFA-1 (CD18/CD11a) binding to ICAM-1 (Homo sapiens, UniProt P05107+P20701).
T1 construct: LFA-1 is immunopurified using the TS2/4 antibody from a 20 g pellet of human JY or SKW3 cells; endogenous in cells; sICAM-1 made in house, secreted from transfected CHO DUX cells
Briefly: Assay to determine inhibition of LFA-1 binding to ICAM-1. The following applies: immunopurified LFA-1 binding to plate-bound sICAM-1; read-out: LFA/ICAM1 Kd. The source says:
Assay to Determine Inhibition of LFA-1 Binding to ICAM-1
This assay protocol is designed to study the direct antagonism, by a test compound, of the interaction of ICAM-1 with the Leukointegrin CD18/CD11a (LFA-1).
LFA-1 is immunopurified using the TS2/4 antibody from a 20 g pellet of human JY or SKW3 cells, utilizing a protocol previously described (Dustin, M. J.; et al., J. Immunol. 1992, 148, 2654-2660). The LFA-1 is purified from SKW3 lysates by immunoaffinity chromatography on TS2/4 LFA-1 mAb Sepharose and eluted at pH 11.5 in the presence of 2 mM MgCl2 and 1% octylglucoside. After collection and neutralization of fractions from the TS2/4 column, samples are pooled and precleared with Protein G agarose.
A soluble form of ICAM-1 is constructed, expressed, purified and characterized as previously described (Marlin, S.; et al., Nature, 1990, 344, 70-72 and see Arruda, A.; et al., Antimicrob. Agents Chemother. 1992, 36, 1186-1192). Briefly, isoleucine 454 which is located at the putative boundary between domain 5 of the ectodomain and the transmembrane domain, is changed to a stop codon using standard oligonucleotide-directed mutagenesis. This construction yields a molecule identical with the first 453 amino acids of membrane bound ICAM-1. An expression vector is created with a hamster dihydrofolate reductase gene, a neomycin-resistance marker, and the coding region of the sICAM-1 construct described above, along with the promoter, splice signals, and polyadenylation signal of the SV40 early region. The recombinant plasmid is transfected into CHO DUX cells using standard calcium phosphate methods. Cells are passaged in selective media (G418) and colonies secreting sICAM-1 are amplified using methotrexate. sICAM-1 is purified from serum-free media using traditional non-affinity chromatographic techniques, including ion exchange and size exclusion chromatography.
LFA-1 binding to ICAM-1 is monitored by first incubating sICAM-1 at 40 μg/mL in Dulbecco's phosphate buffered saline with calcium and magnesium, additional 2 mM MgCl2 and 0.1 mM PMSF (Diluting Buffer) in a 96-well plate for 30 min at room temperature. Plates are then blocked by the addition of 2% (w/v) bovine serum albumin in Diluting Buffer for 37° C. for 1 h. Blocking solution is removed from wells, and test compounds are diluted and then added followed by the addition of approximately 25 ng of immunoaffinity purified LFA-1. The LFA-1 is incubated in the presence of test compound and ICAM-1 at 37° C. for 1 h. Wells are washed 3 times with Diluting Buffer. The bound LFA-1 is detected by the addition of a polyclonal antibody directed against a peptide corresponding to the CD18 cytoplasmic tail in a 1:100 dilution with Diluting Buffer and 1% BSA and allowed to incubate for 45 min at 37° C. Wells are washed 3 times with Diluting Buffer and the bound polyclonal antibody is detected by the addition of a 1:4000 dilution of horse radish peroxidase conjugated to goat immunoglobulin directed against rabbit immunoglobulin. This reagent is allowed to incubate for 20 min at 37° C., wells are washed as above and the substrate for the horse radish peroxidase is added to each well to develop a quantitative colorimetric signal proportional to the amount of LFA-1 bound to sICAM-1. Soluble ICAM-1 (60 μg/mL) is used as a positive control for inhibition of the LFA-1/ICAM-1 interaction. The lack of the addition of LFA-1 to the binding assay is used as a background control for all samples. A dose-response curve is obtained for all test compounds.
On to `C[C@H](NC(=O)c1cnc2n1[C@](C)(Cc1ccc(C#N)cc1)C(=O)N2c1cc(Cl)cc(Cl)c1)C(=O)N[C@H](C)c1ccccn1` [Compound 2], for which the Kd worked out at 0.0089 µM. Still for that read-out and setting: the figure for `C[C@@]1(Cc2ccc(C#N)cc2)C(=O)N(c2cc(Cl)cc(Cl)c2)c2ncc(C(=O)NC3(C(=O)N4CC[C@@H](c5noc(=O)[nH]5)C4)CC3)n21` [Compound 9] is 0.0046 µM; for `CC(=O)N[C@H]1CCN(C(=O)C2(NC(=O)c3cnc4n3[C@](C)(Cc3ccc(C#N)cc3)C(=O)N4c3cc(Cl)cc(Cl)c3)CC2)C1` [Compound 12] it is 0.0054 µM; for `C[C@H](NC(=O)c1cnc2n1[C@](C)(Cc1ccc(C#N)cc1)C(=O)N2c1cc(Cl)cc(Cl)c1)C(=O)N1CCC[C@@H](C(N)=O)C1` [Compound 13] it is 0.0024 µM. For `C[C@H](NC(=O)c1cnc2n1[C@](C)(Cc1ccc(C#N)cc1)C(=O)N2c1cc(Cl)c(F)c(Cl)c1)C(=O)NC1(c2ccccn2)CC1` [Compound 55], the Kd worked out at 0.01 µM. As to `C[C@@]1(Cc2ccc(C#N)cc2)C(=O)N(c2cc(Cl)c(F)c(Cl)c2)c2ncc(C(=O)NC3(C(=O)NC4(c5nccs5)CC4)CC3)n21` [Compound 60], the Kd amounted to 0.013 µM. `C[C@@]1(Cc2ccc(C#N)cc2)C(=O)N(c2cc(Cl)c(F)c(Cl)c2)c2ncc(C(=O)NC3(C(=O)NC4(c5nnc[nH]5)CC4)CC3)n21` [Compound 62]: the Kd came to 0.007 µM. With `C[C@@]1(Cc2ccc(C#N)cc2)C(=O)N(c2cc(Cl)cc(Cl)c2)c2ncc(C(=O)NC3(C(=O)NC4(C(N)=O)CC4)CC3)n21` [Compound 72], the Kd is 0.0084 µM. Consider `C[C@@]1(Cc2ccc(C#N)cc2)C(=O)N(c2cc(Cl)cc(Cl)c2)c2ncc(C(=O)NC3(C(=O)N[C@@H]4CC[C@H](C(N)=O)C4)CC3)n21` [Compound 105], for which the Kd was determined as 0.024 µM. `C[C@@H](NC(=O)c1cnc2n1[C@](C)(Cc1ccc(C#N)cc1)C(=O)N2c1cc(Cl)cc(Cl)c1)C(=O)NC1(C(=O)O)CC1` [Compound 107]: the Kd worked out at 0.028 µM. For the compound `COC(=O)[C@H]1CC[C@@H](NC(=O)C2(NC(=O)c3cnc4n3[C@](C)(Cc3ccc(C#N)cc3)C(=O)N4c3cc(Cl)cc(Cl)c3)CC2)C1` [Compound 109], the Kd turned out to be 0.028 µM. For the compound `C[C@H](NC(=O)c1cnc2n1[C@](C)(Cc1ccc(C#N)cc1)C(=O)N2c1cc(Cl)cc(Cl)c1)C(=O)NC1CCC[C@H]1C(N)=O` (stereo partly shown) [Compound 114], the Kd stood at 0.032 µM. Take `C[C@@H](NC(=O)c1cnc2n1[C@](C)(Cc1ccc(C#N)cc1)C(=O)N2c1cc(Cl)cc(Cl)c1)C(=O)Nc1ccnn1C` [Compound 129]: the Kd was 0.045 µM. Turning to `CC(=O)N1CCC(NC(=O)C2(NC(=O)c3cnc4n3[C@](C)(Cc3ccc(C#N)cc3)C(=O)N4c3cc(Cl)cc(Cl)c3)CC2)CC1` [Compound 143], the Kd came out at 0.071 µM. Regarding `C[C@@]1(Cc2ccc(C#N)cc2)C(=O)N(c2cc(Cl)cc(Cl)c2)c2ncc(C(=O)NC3(C(=O)N4CC[C@@H](O)C4)CC3)n21` [Compound 160], the Kd is 0.0059 µM. On the same count and under the same terms, the figure for `C[C@@]1(Cc2ccc(C#N)cc2)C(=O)N(c2cc(Cl)cc(Cl)c2)c2ncc(C(=O)NC3(C(=O)N4CCC(S(C)(=O)=O)C4)CC3)n21` (stereo partly shown) [Compound 185] is 0.024 µM; for `CCN(C(C)=O)C1CCN(C(=O)C2(NC(=O)c3cnc4n3[C@](C)(Cc3ccc(OC(F)(F)F)cc3)C(=O)N4c3cc(Cl)cc(Cl)c3)CC2)C1` (stereo partly shown) [Compound 187] it is 0.022 µM. Consider `CC(=O)NC1CCCN(C(=O)C2(NC(=O)c3cnc4n3[C@](C)(Cc3ccc(C#N)cc3)C(=O)N4c3cc(Cl)cc(Cl)c3)CC2)C1` (stereo partly shown) [Compound 201], for which the Kd stood at 0.034 µM. As to `C[C@H](NC(=O)c1cnc2n1[C@](C)(Cc1ccc(C#N)cc1)C(=O)N2c1cc(Cl)cc(Cl)c1)C(=O)N1CCC[C@@H]1CO` [Compound 215], the Kd was found to be 0.039 µM. As for `C[C@H](NC(=O)c1cnc2n1[C@](C)(Cc1ccc(C#N)cc1)C(=O)N2c1cc(Cl)cc(Cl)c1)C(=O)NCCN1CCOCC1` [Compound 259], the Kd amounted to 0.12 µM.

`C[C@@H](NC(=O)c1cnc2n1[C@](C)(Cc1ccc(C#N)cc1)C(=O)N2c1cc(Cl)cc(Cl)c1)C(=O)Nc1nccs1` [Compound 286]: the Kd was 0.1 µM.

Another assay relates to IL-2 production in human whole blood stimulated with staphylococcal enterotoxin B.
Test: not given
Type of assay: cell-based.
Conditions: not given
Turning to `C[C@@]1(Cc2ccc(C#N)cc2)C(=O)N(c2cc(Cl)cc(Cl)c2)c2ncc(C(=O)NC3(C(=O)NC4(c5nnc(C6CC6)[nH]5)CC4)CC3)n21` [BI00659245, (R)-5-(4-Cyano-benzyl)-7-(3,5-dichloro-phenyl)-5-methyl-6-oxo-6,7-dihydro-5H-imidazo[1,2-a]imidazole-3-carboxylic acid {1-[1-(5-cyclopropyl-4H-1,2,4-triazol-3-yl)-cyclopropylcarbamoyl]-cyclopropyl}-amide], the WB stood at 12 ×.
